Active and inactive are the calls of the source. No cut-off for these calls is given here. Non-standard residues stand in square brackets, D forms with d. Residues, ends and D or L forms follow the SMILES beside them. *: point of attachment. 2Nal = N[C@@H](Cc1ccc2ccccc2c1)C(=O)O; Aad = N[C@@H](CCCC(=O)O)C(=O)O; OBn = c1ccc(CO*)cc1
What follows are compounds tested against T1, Peroxisome proliferator-activated receptor gamma (Homo sapiens) (UniProt P37231) (assay: Antagonist activity at human PPARgamma receptor expressed in Saccharomyces cerevisiae AH109 co-transfected with mouse CBP assessed as inhibition of rosiglitazone-induced LBD-CBP interaction at 10 uM by alpha-galactosidase based yeast two hybrid assay).
T1 sequence (whole entry): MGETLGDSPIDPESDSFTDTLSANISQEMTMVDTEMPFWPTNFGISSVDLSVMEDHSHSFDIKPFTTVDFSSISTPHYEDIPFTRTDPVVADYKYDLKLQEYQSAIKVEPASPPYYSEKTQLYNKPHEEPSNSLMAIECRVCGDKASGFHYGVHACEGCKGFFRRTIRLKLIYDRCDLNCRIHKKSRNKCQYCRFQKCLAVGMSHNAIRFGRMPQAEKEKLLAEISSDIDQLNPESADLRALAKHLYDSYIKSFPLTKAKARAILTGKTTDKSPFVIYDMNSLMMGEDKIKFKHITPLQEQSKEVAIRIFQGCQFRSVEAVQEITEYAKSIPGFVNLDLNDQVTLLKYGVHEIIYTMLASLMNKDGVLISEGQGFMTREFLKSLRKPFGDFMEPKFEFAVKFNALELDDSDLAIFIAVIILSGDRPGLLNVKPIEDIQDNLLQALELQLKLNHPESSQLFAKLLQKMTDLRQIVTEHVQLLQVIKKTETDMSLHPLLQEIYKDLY
Type: functional

Row | SMILES | inhibition
1 | COC(=O)CC[C@H](NC(=O)[C@@H](N)Cc1ccccc1)C(=O)OC | 3.99%
2 | COC(=O)CC[C@H](NC(=O)[C@H](N)Cc1ccccc1)C(=O)OC | inactive
3 | COC(=O)C[C@H](NC(=O)[C@H](N)Cc1ccccc1)C(=O)OC | inactive
4 | COC(=O)[C@H](C)NC(=O)[C@@H](N)Cc1ccccc1 | inactive
5 | COC(=O)[C@H](CC(C)C)NC(=O)[C@H](N)Cc1ccccc1 | inactive
6 | N[C@@H](Cc1ccccc1)C(=O)N[C@@H](CC(=O)OCc1ccccc1)C(=O)OCc1ccccc1 (H-Phe-Asp(OBn)-OBn) | inactive
7 | N[C@@H](Cc1ccccc1)C(=O)N[C@@H](CCC(=O)OCc1ccccc1)C(=O)OCc1ccccc1 (H-Phe-Glu(OBn)-OBn) | inactive
8 | CC(C)C[C@H](NC(=O)[C@@H](N)Cc1c[nH]c2ccccc12)C(=O)O (H-Trp-Leu-OH) | 58.2%
9 | COC(=O)CC[C@H](NC(=O)[C@@H](N)Cc1ccc(OC)cc1)C(=O)OC (H-Tyr(Me)-Glu(OMe)-OMe) | 5.26%
10 | N[C@@H](Cc1ccc2ccccc2c1)C(=O)N[C@@H](CCC(=O)OCc1ccccc1)C(=O)OCc1ccccc1 (H-[2Nal]-Glu(OBn)-OBn) | 27.7%
11 | COC(=O)CC[C@H](NC(=O)[C@@H](N)Cc1ccc2ccccc2c1)C(=O)OC (H-[2Nal]-Glu(OMe)-OMe) | 14.7%
12 | COC(=O)[C@H](CC(C)C)NC(=O)[C@@H](N)Cc1ccc2ccccc2c1 (H-[2Nal]-Leu-OMe) | 4.34%

Now from value to compound:

Row | inhibition | SMILES
13 | 43.2% | N[C@@H](Cc1c[nH]c2ccccc12)C(=O)N[C@@H](CCC(=O)O)C(=O)O
14 | 57.8% | N[C@@H](Cc1c[nH]c2ccccc12)C(=O)N[C@@H](CC(=O)O)C(=O)O
15 | inactive | COC(=O)CCC[C@H](NC(=O)[C@H](N)Cc1ccccc1)C(=O)OC
16 | inactive | COC(=O)CC[C@@H](NC(=O)[C@@H](N)Cc1c[nH]c2ccccc12)C(=O)OC
17 | 4.05% | COC(=O)CC[C@H](NC(=O)[C@@H](N)Cc1c[nH]c2ccccc12)C(=O)OC
18 | 15.5% | N[C@@H](Cc1c[nH]c2ccccc12)C(=O)N[C@H](CC(=O)O)C(=O)O
19 | 0.4% | N[C@@H](Cc1c[nH]c2ccccc12)C(=O)N[C@H](CCC(=O)O)C(=O)O
20 | inactive | N[C@@H](Cc1c[nH]c2ccccc12)C(=O)N[C@H](CCC(=O)OCc1ccccc1)C(=O)OCc1ccccc1
21 | 0.68% | N[C@H](Cc1c[nH]c2ccccc12)C(=O)N[C@@H](CC(=O)O)C(=O)O
22 | 0.42% | N[C@H](Cc1c[nH]c2ccccc12)C(=O)N[C@H](CC(=O)O)C(=O)O
23 | 1.12% | N[C@@H](Cc1ccccc1)C(=O)N[C@@H](CC(=O)O)C(=O)O (H-Phe-Asp-OH)
24 | 4.3% | N[C@@H](Cc1ccccc1)C(=O)N[C@@H](CCC(=O)O)C(=O)O (H-Phe-Glu-OH)
25 | 45% | N=C(N)NCCC[C@H](NC(=O)[C@@H](N)Cc1c[nH]c2ccccc12)C(=O)O (H-Trp-Arg-OH)
26 | 36.3% | NC(=O)C[C@H](NC(=O)[C@@H](N)Cc1c[nH]c2ccccc12)C(=O)O (H-Trp-Asn-OH)
27 | 5.33% | N[C@@H](Cc1c[nH]c2ccccc12)C(=O)N[C@@H](CC(=O)OCc1ccccc1)C(=O)OCc1ccccc1 (H-Trp-Asp(OBn)-OBn)
28 | inactive | COC(=O)C[C@H](NC(=O)[C@@H](N)Cc1c[nH]c2ccccc12)C(=O)OC (H-Trp-Asp(OMe)-OMe)
29 | 38.6% | NC(=O)CC[C@H](NC(=O)[C@@H](N)Cc1c[nH]c2ccccc12)C(=O)O (H-Trp-Gln-OH)
30 | inactive | CC(C)C[C@H](NC(=O)[C@@H](N)Cc1c[nH]c2ccccc12)C(=O)OCc1ccccc1 (H-Trp-Leu-OBn)
31 | 5.29% | COC(=O)[C@H](CC(C)C)NC(=O)[C@@H](N)Cc1c[nH]c2ccccc12 (H-Trp-Leu-OMe)
32 | 8.74% | COC(=O)CCC[C@H](NC(=O)[C@@H](N)Cc1c[nH]c2ccccc12)C(=O)OC (H-Trp-[Aad](OMe)-OMe)
33 | 70% | N[C@@H](Cc1c[nH]c2ccccc12)C(=O)N[C@@H](CCCC(=O)O)C(=O)O (H-Trp-[Aad]-OH)
34 | 2.1% | N[C@@H](Cc1ccc2ccccc2c1)C(=O)N[C@@H](CCC(=O)O)C(=O)O (H-[2Nal]-Glu-OH)

What follows are compounds tested against T2, Peroxisome proliferator-activated receptor gamma (Homo sapiens, UniProt P37231) (assay: Antagonist activity at human PPARgamma receptor expressed in Saccharomyces cerevisiae AH109 co-transfected with mouse CBP assessed as inhibition of rosiglitazone-induced LBD-CBP interaction by alpha-galactosidase based yeast two hybrid assay).
T2 sequence (P37231 whole entry): T1 sequence (whole entry)
Type: functional

Row | SMILES | IC50
35 | CC(C)(c1ccc(OCC2CO2)cc1)c1ccc(OCC2CO2)cc1 (configuration not stated) | 100 µM
36 | O=C(Nc1ccccc1)c1cc([N+](=O)[O-])ccc1Cl | 3.3 µM
37 | O=C(O)C(Oc1cccc(C(F)(F)F)c1)c1ccc(Cl)cc1 (configuration not stated) | 0.22 µM
38 | C=CCn1cc([N+](=O)[O-])s/c1=N\C(=O)C(C)(C)C | 0.82 µM
39 | CC(C)C[C@H](NC(=O)[C@@H](N)Cc1c[nH]c2ccccc12)C(=O)O (H-Trp-Leu-OH) | 25.8 µM
40 | CC(=O)NCCOC(=O)C(Oc1cccc(C(F)(F)F)c1)c1ccc(Cl)cc1 (configuration not stated) [HALOFENATE] | 40 µM
41 | COP(=O)(OC)OC(c1ccc(Cl)cc1)P(=O)(OC)OC (configuration not stated) [MIFOBATE] | 140 µM

Results, then the compound that gave them:

Row | IC50 | SMILES
42 | 8.67 µM | N[C@@H](Cc1c[nH]c2ccccc12)C(=O)N[C@@H](CCC(=O)O)C(=O)O
43 | 5.2 µM | N[C@@H](Cc1c[nH]c2ccccc12)C(=O)N[C@@H](CC(=O)O)C(=O)O
44 | 15.4 µM | N=C(N)NCCC[C@H](NC(=O)[C@@H](N)Cc1c[nH]c2ccccc12)C(=O)O (H-Trp-Arg-OH)
45 | 18.4 µM | NC(=O)C[C@H](NC(=O)[C@@H](N)Cc1c[nH]c2ccccc12)C(=O)O (H-Trp-Asn-OH)
46 | 18.7 µM | NC(=O)CC[C@H](NC(=O)[C@@H](N)Cc1c[nH]c2ccccc12)C(=O)O (H-Trp-Gln-OH)
47 | 15.1 µM | N[C@@H](Cc1c[nH]c2ccccc12)C(=O)N[C@@H](CCCC(=O)O)C(=O)O (H-Trp-[Aad]-OH)
